# Columns and labels:
# [1] = biological target: Dipeptidyl peptidase 4 (Rattus norvegicus, UniProt P14740); experiment: In vitro inhibitory activity against Dipeptidyl peptidase IV (DPP-IV) extracted from rat plasma; assay type: cell-free
# [2] = Cmax after an oral dose of 10 umol/Kg in male Sprague-Dawley rats; assay type: ADME, organism-based; design: dose 10 umol/Kg, route oral; settings: rat, in vivo
# [3] = Cmax after an oral dose of 10 umol/Kg in male cynomolgus monkeys; assay type: ADME, organism-based, Macaca fascicularis; design: dose 10 umol/Kg, route oral; settings: cynomolgus monkey, in vivo
# [4] = Clearance from plasma in male Sprague-Dawley rats; assay type: ADME, organism-based; settings: rat
# [5] = Clearance from plasma in male cynomolgus monkeys; assay type: ADME, organism-based, Macaca fascicularis; settings: cynomolgus monkey
# [6] = Absolute bioavailability in male cynomolgus monkeys; assay type: ADME, organism-based, Macaca fascicularis; settings: cynomolgus monkey, in vivo
# [7] = Absolute bioavailability in maleSprague-Dawley rats; assay type: ADME, organism-based; settings: male, Sprague-Dawley, rat, in vivo
# [8] = Steady state volume of distribution in male Sprague-Dawley rats; assay type: ADME, organism-based; settings: rat, in vivo
# [9] = Steady state volume of distribution male cynomolgus monkeys; assay type: ADME, organism-based, Macaca fascicularis; settings: cynomolgus monkey, in vivo
# [10] = Half-life (t1/2) after an oral dose of 1 uM/Kg in monkey; assay type: ADME, organism-based; settings: simiiformes, in vivo
# [11] = Half-life (t1/2) after an oral dose of 100 mg in human; assay type: ADME, organism-based; settings: in vivo
# [12] = system: Monkey; experiment: In vivo ability to reduce the peak plasma glucose levels in monkey compared to control ( 88 +/- 3 mg/dL) during an oral glucose tolerance test (OGTT); assay type: functional, Cercopithecidae
# [13] = system: Monkey; experiment: In vivo ability to reduce the plasma glucose levels ( in 0-90 minutes glucose AUC) in monkey compared to control during an oral glucose tolerance test (PGTT); assay type: functional, Cercopithecidae
# Dipeptidyl peptidase 4, sequence (P14740 whole entry): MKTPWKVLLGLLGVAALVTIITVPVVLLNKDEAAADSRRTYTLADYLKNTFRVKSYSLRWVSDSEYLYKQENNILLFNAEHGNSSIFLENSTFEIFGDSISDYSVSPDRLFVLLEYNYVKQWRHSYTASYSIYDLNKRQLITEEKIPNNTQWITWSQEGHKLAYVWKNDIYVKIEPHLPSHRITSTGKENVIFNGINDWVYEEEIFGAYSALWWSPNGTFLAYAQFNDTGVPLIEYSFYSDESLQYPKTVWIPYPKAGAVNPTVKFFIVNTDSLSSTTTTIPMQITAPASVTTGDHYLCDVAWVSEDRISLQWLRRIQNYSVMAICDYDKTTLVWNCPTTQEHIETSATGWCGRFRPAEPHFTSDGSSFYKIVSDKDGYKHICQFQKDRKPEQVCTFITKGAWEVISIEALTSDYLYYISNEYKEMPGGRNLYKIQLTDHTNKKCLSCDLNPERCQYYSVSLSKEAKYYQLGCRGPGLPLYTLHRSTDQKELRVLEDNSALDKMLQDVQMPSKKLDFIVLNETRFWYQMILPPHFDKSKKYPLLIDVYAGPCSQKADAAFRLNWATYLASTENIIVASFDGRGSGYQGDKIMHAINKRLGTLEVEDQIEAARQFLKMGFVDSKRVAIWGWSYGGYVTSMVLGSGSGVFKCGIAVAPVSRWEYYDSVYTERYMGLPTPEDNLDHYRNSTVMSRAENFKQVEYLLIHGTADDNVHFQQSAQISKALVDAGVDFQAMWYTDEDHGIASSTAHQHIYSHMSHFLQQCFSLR
IC50 [1],Cmax [2],Cmax [3],clearance [4],clearance [5],bioavailability [6],bioavailability [7],Vd [8],Vd [9],half-life [10],half-life [11],SMILES,Reduction [12],Reduction [13]
2.8 nM,,,,,,,,,,,N#C[C@@H]1CCCN1C(=O)[C@@H](N)C1CCCCC1,,
,3.65 µM,7.56 µM,28 mL/min/kg,21.9 mL/min/kg,≥ 74%,≥ 74%,0.67 L/kg,0.841 L/kg,51 min,51 min,N#Cc1ccc(NCCNCC(=O)N2CCC[C@H]2C#N)nc1,98,38%

# Source: ChEMBL document CHEMBL1135431, “1-[2-[(5-Cyanopyridin-2-yl)amino]ethylamino]acetyl-2-(S)-pyrrolidinecarbonitrile: a potent, selective, and orally bioavailable dipeptidyl peptidase IV inhibitor with antihyperglycemic properties” (J Med Chem, 2002)
